Test results reported in patent publication US20100286076A1, “ECTOPARASITICIDAL METHODS AND FORMULATIONS” (priority 2009, published 2010).

Legend:
[1] = system: adult stage kennel ticks, Rhipicephalus sanguineus; experiment: Oral administration per os to dogs, experimental kennel tick infestation; assay type: in vivo; details: at the doses tested (30, 50 or 100 mg/kg)
Method: Oral administration per os to dogs. Given the above data, investigation into oral efficacy in dogs was begun. The investigation was conducted to evaluate 1) efficacy for a point dose of 30 mg/kg, against experimental, concurrent infestations with the adult cat flea, Ctenocephalides felis; adult stage American dog ticks, Dermacentor variabilis; and adult stage kennel ticks, Rhipicephalus sanguineus; 2) plasma concentrations of the 30 mg/kg treated dogs; and 3) efficacy for point dosages of either 50 mg/kg or 100 mg/kg, against experimental infestations with adult stage kennel ticks, R. sanguineus.
Sixteen dogs were selected for two groups of eight dogs (4 male: 4 female) per group. One treatment group received spinetoram, while the other group was left untreated. The dogs were housed individually in concrete-floored chain-link kennels both inside and outside. During the study period the dogs were fed a dry dog chow, except for the day of treatment (day 0) when they received wet canned food. The dogs had ad libitum access to water. […]
Each dog was experimentally infested with about 100 adult fleas, and 50 ticks of each species on test days—1,5,12,19, 28, 35, and 42, with additional flea infestations conducted on days 49 and 56. […] Knockdown activity (Day 1) was determined using 24 hr post-dosing comb counts. […]

Ctenocephalides felis = experiment: Pulse vs. single dose administration per os to dogs, flea infestation comb counts; assay type: in vivo
Method: Pulse vs. Single dose administration per os to dogs/Ctenocephalides felis Another dog study was undertaken to evaluate the effect on flea infestation of 1) oral administration of a single point dose of 60 mg/kg; 2) oral administration of a pulsed dosing scheme of 20 mg/kg TID every 2 hours for one day; 3) oral administration of a pulsed dosing scheme of 20 mg/kg TID every 4 hours for one day; and 4) post-treatment plasma concentration of spinetoram.
Four treatment groups of 8 dogs each (4 male: 4 female) were dosed spinetoram as follows:
Treatment Group 1: 60 mg/kg, single dose
Treatment Group 2: 60 mg/kg, (20 mg/kg every 2 hours, three times)
Treatment Group 3: 60 mg/kg, (20 mg/kg every 4 hours, three times)
Treatment Group 4: 0 mg/kg, (negative control)
The dogs were housed individually in concrete-floored chain-link kennels both inside and outside. During the study period the dogs were fed a dry dog chow, except for two days prior to and the day of treatment (day 0) when they received wet canned food. The dogs had ad libitum access to water.
The treated dogs received one or more gelatin capsules containing technical active spinetoram powder by mouth, with treatment group 4 receiving placebo. Each dog was experimentally infested with about 100 fleas on test days—1,5,12,19, 28, 35, 42, 49, and 56. Knockdown assessments were conducted 24 hours after dosing, with residual efficacy evaluated subsequently at 48 hours after each subsequent infestation. The day 1 comb count served to determine the initial/knockdown efficacy, approximately 24 hours after the 60 mg/kg dose, or the first of the pulse dose. Blood samples were drawn to determine concentration of spinetoram in plasma.

## Spinetoram
[1]
  activity against ticks: did not demonstrate statistically significant activity
Ctenocephalides felis; oral 20 mg/kg TID@2 h, Day 1
  geometric mean live adult flea count: 0.0
  geometric mean percent reduction in live adult flea counts compared to the untreated control group: (100) percent
Ctenocephalides felis; oral 20 mg/kg TID@2 h, Day 7
  geometric mean live adult flea count: 0.0
  geometric mean percent reduction in live adult flea counts compared to the untreated control group: (100) percent
Ctenocephalides felis; oral 20 mg/kg TID@2 h, Day 14
  geometric mean live adult flea count: 0.0
  geometric mean percent reduction in live adult flea counts compared to the untreated control group: (100) percent
Ctenocephalides felis; oral 20 mg/kg TID@2 h, Day 21
  geometric mean live adult flea count: 0.0
  geometric mean percent reduction in live adult flea counts compared to the untreated control group: (100) percent
Ctenocephalides felis; oral 20 mg/kg TID@2 h, Day 30
  geometric mean live adult flea count: 0.0
  geometric mean percent reduction in live adult flea counts compared to the untreated control group: (100) percent
Ctenocephalides felis; oral 20 mg/kg TID@2 h, Day 37
  geometric mean live adult flea count: 0.0
  geometric mean percent reduction in live adult flea counts compared to the untreated control group: (100) percent
Ctenocephalides felis; oral 20 mg/kg TID@2 h, Day 44
  geometric mean live adult flea count: 0.0
  geometric mean percent reduction in live adult flea counts compared to the untreated control group: (100) percent
Ctenocephalides felis; oral 20 mg/kg TID@2 h, Day 51
  geometric mean live adult flea count: 0.0
  geometric mean percent reduction in live adult flea counts compared to the untreated control group: (100) percent
Ctenocephalides felis; oral 20 mg/kg TID@2 h, Day 58
  geometric mean live adult flea count: 0.0
  geometric mean percent reduction in live adult flea counts compared to the untreated control group: (100) percent
Ctenocephalides felis; oral 20 mg/kg TID@2 h, Day 72
  geometric mean live adult flea count: 0.0
  geometric mean percent reduction in live adult flea counts compared to the untreated control group: (100) percent
Ctenocephalides felis; oral 20 mg/kg TID@2 h, Day 86
  geometric mean live adult flea count: 6.4
  geometric mean percent reduction in live adult flea counts compared to the untreated control group: (91.7) percent
Ctenocephalides felis; oral 20 mg/kg TID@2 h, Day 93
  geometric mean live adult flea count: 2.5
  geometric mean percent reduction in live adult flea counts compared to the untreated control group: (96.7) percent
Ctenocephalides felis; oral 20 mg/kg TID@2 h, Day 100
  geometric mean live adult flea count: 10.0
  geometric mean percent reduction in live adult flea counts compared to the untreated control group: (88.0) percent
Ctenocephalides felis; oral 20 mg/kg TID@2 h, Day 107
  geometric mean live adult flea count: 4.8
  geometric mean percent reduction in live adult flea counts compared to the untreated control group: (94.1) percent
Ctenocephalides felis; oral 20 mg/kg TID@4 h, Day 1
  geometric mean live adult flea count: 0.0
  geometric mean percent reduction in live adult flea counts compared to the untreated control group: (100) percent
Ctenocephalides felis; oral 20 mg/kg TID@4 h, Day 7
  geometric mean live adult flea count: 0.0
  geometric mean percent reduction in live adult flea counts compared to the untreated control group: (100) percent
Ctenocephalides felis; oral 20 mg/kg TID@4 h, Day 14
  geometric mean live adult flea count: 0.0
  geometric mean percent reduction in live adult flea counts compared to the untreated control group: (100) percent
Ctenocephalides felis; oral 20 mg/kg TID@4 h, Day 21
  geometric mean live adult flea count: 0.0
  geometric mean percent reduction in live adult flea counts compared to the untreated control group: (100) percent
Ctenocephalides felis; oral 20 mg/kg TID@4 h, Day 30
  geometric mean live adult flea count: 0.2
  geometric mean percent reduction in live adult flea counts compared to the untreated control group: (99.8) percent
Ctenocephalides felis; oral 20 mg/kg TID@4 h, Day 37
  geometric mean live adult flea count: 0.0
  geometric mean percent reduction in live adult flea counts compared to the untreated control group: (100) percent
Ctenocephalides felis; oral 20 mg/kg TID@4 h, Day 44
  geometric mean live adult flea count: 0.0
  geometric mean percent reduction in live adult flea counts compared to the untreated control group: (100) percent
Ctenocephalides felis; oral 20 mg/kg TID@4 h, Day 51
  geometric mean live adult flea count: 0.2
  geometric mean percent reduction in live adult flea counts compared to the untreated control group: (99.7) percent
Ctenocephalides felis; oral 20 mg/kg TID@4 h, Day 58
  geometric mean live adult flea count: 0.0
  geometric mean percent reduction in live adult flea counts compared to the untreated control group: (100) percent
Ctenocephalides felis; oral 20 mg/kg TID@4 h, Day 72
  geometric mean live adult flea count: 0.2
  geometric mean percent reduction in live adult flea counts compared to the untreated control group: (99.8) percent
Ctenocephalides felis; oral 20 mg/kg TID@4 h, Day 86
  geometric mean live adult flea count: 4.7
  geometric mean percent reduction in live adult flea counts compared to the untreated control group: (93.8) percent
Ctenocephalides felis; oral 20 mg/kg TID@4 h, Day 93
  geometric mean live adult flea count: 4.8
  geometric mean percent reduction in live adult flea counts compared to the untreated control group: (93.7) percent
Ctenocephalides felis; oral 20 mg/kg TID@4 h, Day 100
  geometric mean live adult flea count: 11.4
  geometric mean percent reduction in live adult flea counts compared to the untreated control group: (86.3) percent
Ctenocephalides felis; oral 20 mg/kg TID@4 h, Day 107
  geometric mean live adult flea count: 8.5
  geometric mean percent reduction in live adult flea counts compared to the untreated control group: (89.6) percent
Ctenocephalides felis; oral 60 mg/kg SID, Day 1
  geometric mean live adult flea count: 0.0
  geometric mean percent reduction in live adult flea counts compared to the untreated control group: (100) percent
Ctenocephalides felis; oral 60 mg/kg SID, Day 7
  geometric mean live adult flea count: 0.0
  geometric mean percent reduction in live adult flea counts compared to the untreated control group: (100) percent
Ctenocephalides felis; oral 60 mg/kg SID, Day 14
  geometric mean live adult flea count: 0.0
  geometric mean percent reduction in live adult flea counts compared to the untreated control group: 100) percent
Ctenocephalides felis; oral 60 mg/kg SID, Day 21
  geometric mean live adult flea count: 0.0
  geometric mean percent reduction in live adult flea counts compared to the untreated control group: (100) percent
Ctenocephalides felis; oral 60 mg/kg SID, Day 30
  geometric mean live adult flea count: 0.0
  geometric mean percent reduction in live adult flea counts compared to the untreated control group: (100) percent
Ctenocephalides felis; oral 60 mg/kg SID, Day 37
  geometric mean live adult flea count: 0.0
  geometric mean percent reduction in live adult flea counts compared to the untreated control group: (100) percent
Ctenocephalides felis; oral 60 mg/kg SID, Day 44
  geometric mean live adult flea count: 0.0
  geometric mean percent reduction in live adult flea counts compared to the untreated control group: (100) percent
Ctenocephalides felis; oral 60 mg/kg SID, Day 51
  geometric mean live adult flea count: 0.0
  geometric mean percent reduction in live adult flea counts compared to the untreated control group: (100) percent
Ctenocephalides felis; oral 60 mg/kg SID, Day 58
  geometric mean live adult flea count: 0.2
  geometric mean percent reduction in live adult flea counts compared to the untreated control group: (99.8) percent
Ctenocephalides felis; oral 60 mg/kg SID, Day 72
  geometric mean live adult flea count: 0.0
  geometric mean percent reduction in live adult flea counts compared to the untreated control group: (100) percent
Ctenocephalides felis; oral 60 mg/kg SID, Day 86
  geometric mean live adult flea count: 1.8
  geometric mean percent reduction in live adult flea counts compared to the untreated control group: (97.7) percent
Ctenocephalides felis; oral 60 mg/kg SID, Day 93
  geometric mean live adult flea count: 1.9
  geometric mean percent reduction in live adult flea counts compared to the untreated control group: (97.5) percent
Ctenocephalides felis; oral 60 mg/kg SID, Day 100
  geometric mean live adult flea count: 5.2
  geometric mean percent reduction in live adult flea counts compared to the untreated control group: (93.7) percent
Ctenocephalides felis; oral 60 mg/kg SID, Day 107
  geometric mean live adult flea count: 3.2
  geometric mean percent reduction in live adult flea counts compared to the untreated control group: (96.2) percent
